Entries after “also recorded” stand apart in the source; their conditions may differ.
How the values were obtained:
[1] = target: antithrombin (AT) (Homo sapiens, UniProt P01008); assay: Binding affinity of LMWHs to antithrombin by affinity co-electrophoresis; settings: 35S-labeled compounds; average of two or three determinations
Procedure: The dissociation constant (Kd) of each sample and AT was determined using affinity co-electrophoresis (Lee, M. K. & Lander, A. D., Proc. Natl. Acad. Sci. USA 88, 2768-2772, 1991). Approximately 1500-2500 cpm of ^35S-labeled LMWH Compounds 1 to 5 was loaded per lane with zones of AT at concentrations 0, 8, 16, 32, 60, 120, 250, 500 and 1000 nM. The gel was performed at 300 mA for 2 h, dried and analyzed on a Phospholmager (Amersham Biosciences, Wauwatosa, Wis., United States of America Storm 860). The retardation coefficient was calculated at R=(M0−M)/M0, where M0 is the mobility of the polysaccharide through the zone without AT, and M is the mobility of the sample through each separation zone. The retardation coefficient was then plotted against the retardation coefficient divided by its respective concentration of AT. The slope of the line represents −1/Kd.

[2] = system: human factor Xa; assay: Neutralization of LMWHs by protamine in vitro (anti-Xa activity); assay type: biochemical; settings: human plasma, protamine 0-90 μg/ml (FIG. 4B)
Procedure: Determination of the in vitro and ex vivo anti-Xa activity. Assays were based on a previously published method (Zhang, L. et al., J. Biol. Chem. 276, 42311-42321, 2001; Duncan et al., Biochim Biophys Acta 1671, 34-43, 2004). Briefly, human factor Xa (Enzyme Research Laboratories, South Bend, Ind., United States of America) was diluted to 50 Uml^−1 with PBS. The chromogenic substrates, S-2765 was from Diapharma (Westchester, Ohio, United States of America) and made up at 1 mgml^−1 in water. UFH (from US Pharmacopea), LOVENOX® (from local pharmacy) and LMWH Compounds 1 to 5) was dissolved in PBS at various concentrations (3 to 600 μgml^−1). The reaction mixture, which consisted of 20 μl of human plasma (Sigma-Aldrich, St. Louis, Mo., United States of America) and 8 μl of the solution containing the sample, was incubated at room temperature for 5 min. Factor Xa (100 μl) was then added. After incubating at room temperature for 4 min, 30 μl of S-2765 substrate was added. The absorbance of the reaction mixture was measured at 405 nm continuously for 5 min. The absorbance values were plotted against the reaction time. The initial reaction rates as a function of concentration were used to calculate the IC50 values.
The procedures followed a previous publication (Sundaram, M. et al., Proc. Natl. Acad. Sci. 100, 651-656, 2003). The LMWH Compounds and protamine chloride (Sigma-Aldrich) were dissolved in PBS. The concentrations of the LMWH samples for each Compound were different because each Compound has different IC50 value for the anti-Xa activity. […] The mixture (30 μl) was then subjected to anti-Xa activity measurement as described above.

[3] = Clearance of LMWHs in vivo: retention of 35S-labeled material in mouse liver; settings: BALB/c mice, lateral tail vein injection, 12 min (FIG. 4A)
Procedure: The mouse experiment was approved by the University of Nebraska Animal Care and Use Committees. Five to six week old BALB/c mice (Harlan Laboratories, Indianapolis, Ind., United States of America) weighing 18-20 g were anesthetized in a small 34° C. chamber with a flow of oxygen containing 4% isoflurane. Once the mice were unconscious, they were individually placed on a heated pad with a nose cone fitted over their snout with a constant flow of oxygen containing 2% isoflurane. A specific amount of ^35S-labeled LMWH Compound, LMWH, or UFH was injected via the lateral tail vein using a 27G1/2 needle mounted on a 1 ml syringe. The labeled material was allowed to circulate in the blood for 12 min while the mouse lay unconscious. The abdominal cavity was exposed by incision and the liver was collected, washed, and weighed. Approximately 100 mg from each of the lobes was homogenized in 0.75 ml 1% NP-40 and then centrifuged at 12,000×g for 2 min to pellet insoluble material. The supernatant was then added to 4 ml scintillation fluid, mixed for 30 min by rocking and then radioactivity was assessed by a Beckman Coulter LS6500 scintillation counter. The data is presented as the percentage of CPM in total liver divided by total CPM injected±standard error of 3-5 mice per ligand.

Chain of antithrombin (AT) (P01008 33-464): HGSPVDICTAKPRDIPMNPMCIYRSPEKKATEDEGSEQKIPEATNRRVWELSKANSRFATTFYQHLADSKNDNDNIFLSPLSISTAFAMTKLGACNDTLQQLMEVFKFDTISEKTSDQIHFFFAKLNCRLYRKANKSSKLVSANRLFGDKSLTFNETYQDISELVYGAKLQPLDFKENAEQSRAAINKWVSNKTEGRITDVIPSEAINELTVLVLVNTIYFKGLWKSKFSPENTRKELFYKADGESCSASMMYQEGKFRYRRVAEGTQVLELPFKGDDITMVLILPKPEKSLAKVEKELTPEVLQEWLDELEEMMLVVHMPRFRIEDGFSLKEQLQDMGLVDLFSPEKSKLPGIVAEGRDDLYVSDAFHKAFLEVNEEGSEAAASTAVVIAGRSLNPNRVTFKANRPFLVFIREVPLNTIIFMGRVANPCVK

Row | Structure (SMILES) | Kd [1] [nM] | in vitro reversibility of anti-Xa activity by protamine [2] | retention in the liver [3]
1 | O=C(O)C1OC(OC2C(COS(=O)(=O)O)OC(OC3C(C(=O)O)OC(OC4C(COS(=O)(=O)O)OC(OC5C(C(=O)O)OC(OC6C(COS(=O)(=O)O)OC(OC7C(C(=O)O)OC(Oc8ccc([N+](=O)[O-])cc8)C(O)C7O)C(NS(=O)(=O)O)C6O)C(OS(=O)(=O)O)C5O)C(NS(=O)(=O)O)C4O)C(OS(=O)(=O)O)C3O)C(NS(=O)(=O)O)C2OS(=O)(=O)O)C(O)C(O)C1OC1OC(COS(=O)(=O)O)C(O)C(O)C1NS(=O)(=O)O (stereo not drawn) [Compound 2] | 8 | Unlike Compounds 1, 2, and 3, Compound 4 was partially reversed by protamine | very low level of retention in the liver
2 | CC(=O)NC1C(OC2C(C(=O)O)OC(OC3C(COS(=O)(=O)O)OC(OC4C(C(=O)O)OC(OC5C(COS(=O)(=O)O)OC(OC6C(C(=O)O)OC(OC7C(COS(=O)(=O)O)OC(OC8C(C(=O)O)OC(OC9C(COS(=O)(=O)O)OC(OC%10C(C(=O)O)OC(OC%11C(COS(=O)(=O)O)OC(OC%12C(C(=O)O)OC(Oc%13ccc([N+](=O)[O-])cc%13)C(O)C%12O)C(NS(=O)(=O)O)C%11O)C(OS(=O)(=O)O)C%10O)C(NS(=O)(=O)O)C9OS(=O)(=O)O)C(OS(=O)(=O)O)C8O)C(NS(=O)(=O)O)C7O)C(OS(=O)(=O)O)C6O)C(NS(=O)(=O)O)C5O)C(OS(=O)(=O)O)C4O)C(NS(=O)(=O)O)C3OS(=O)(=O)O)C(O)C2O)OC(COS(=O)(=O)O)C(O)C1O (stereo not drawn) [Compound 5] | 28 | same protamine reversibility as UFH and greater reversibility than LOVENOX®; also recorded: can be reversed by protamine | retained in the liver; also recorded: internalized in mice liver
3 | O=C(O)C1OC(OC2C(COS(=O)(=O)O)OC(OC3C(C(=O)O)OC(OC4C(COS(=O)(=O)O)OC(OC5C(C(=O)O)OC(OC6C(COS(=O)(=O)O)OC(OC7C(C(=O)O)OC(OC8C(COS(=O)(=O)O)OC(OC9C(C(=O)O)OC(Oc%10ccc([N+](=O)[O-])cc%10)C(O)C9O)C(NS(=O)(=O)O)C8O)C(OS(=O)(=O)O)C7O)C(NS(=O)(=O)O)C6O)C(OS(=O)(=O)O)C5O)C(NS(=O)(=O)O)C4O)C(OS(=O)(=O)O)C3O)C(NS(=O)(=O)O)C2OS(=O)(=O)O)C(O)C(O)C1OC1OC(COS(=O)(=O)O)C(O)C(O)C1NS(=O)(=O)O (stereo not drawn) [Compound 3] | 5 | Unlike Compounds 1, 2, and 3, Compound 4 was partially reversed by protamine | retained in the liver; also recorded: internalized in mice liver
4 | CC(=O)NC1C(OC2C(C(=O)O)OC(OC3C(COS(=O)(=O)O)OC(OC4C(C(=O)O)OC(OC5C(COS(=O)(=O)O)OC(OC6C(C(=O)O)OC(OC7C(COS(=O)(=O)O)OC(OC8C(C(=O)O)OC(OC9C(COS(=O)(=O)O)OC(OC%10C(C(=O)O)OC(OC%11C(COS(=O)(=O)O)OC(OC%12C(C(=O)O)OC(Oc%13ccc([N+](=O)[O-])cc%13)C(O)C%12O)C(NS(=O)(=O)O)C%11O)C(OS(=O)(=O)O)C%10O)C(NS(=O)(=O)O)C9O)C(OS(=O)(=O)O)C8O)C(NS(=O)(=O)O)C7O)C(OS(=O)(=O)O)C6O)C(NS(=O)(=O)O)C5O)C(OS(=O)(=O)O)C4O)C(NS(=O)(=O)O)C3OS(=O)(=O)O)C(O)C2O)OC(COS(=O)(=O)O)C(O)C1O (stereo not drawn) [Compound 4] | 30 | partially reversed by protamine | retained in the liver; also recorded: internalized in mice liver
5 | O=C(O)C1OC(OC2C(COS(=O)(=O)O)OC(OC3C(C(=O)O)OC(OC4C(COS(=O)(=O)O)OC(OC5C(C(=O)O)OC(Oc6ccc([N+](=O)[O-])cc6)C(O)C5O)C(NS(=O)(=O)O)C4O)C(OS(=O)(=O)O)C3O)C(NS(=O)(=O)O)C2OS(=O)(=O)O)C(O)C(O)C1OC1OC(COS(=O)(=O)O)C(O)C(O)C1NS(=O)(=O)O (stereo not drawn) [Compound 1] | 7 | Unlike Compounds 1, 2, and 3, Compound 4 was partially reversed by protamine | very low level of retention in the liver
